Test results from patent US8188127B2, “Microbicidal composition” (Rohm and Haas Company, priority 2007, dated 2012).

What was measured:
Format in all cases: cell-based
A. niger ATCC # 16404 = experiment: Microtiter plate MIC / synergy test (Kull synergy index), mold, PDB medium; conditions: for Ca: MIC of BIOBAN1246 alone: component alone; for Ca: ppm AI of first component (A) alone (MIC, QA): A. niger
From the text: (§1) One measure of synergism is the industrially accepted method described by Kull, F. C.; Eisman, P. C.; Sylwestrowicz, H. D. and Mayer, R. L., in Applied Microbiology 9:538-541 (1961), using the ratio determined by the formula: Qa/QA+Qb/QB=Synergy Index (“SI”) wherein: • QA=concentration of compound A (first component) in ppm, acting alone, which produced an end point (MIC of Compound A). • Qa=concentration of compound A in ppm, in the mixture, which produced an end point. • QB=concentration of compound B (second component) in ppm, acting alone, which produced an end point (MIC of Compound B). • Qb=concentration of compound B in ppm, in the mixture, which produced an end point.
(§2) When the sum of Qa/QA and Qb/QB is greater than one, antagonism is indicated. […] The lower the SI, the greater the synergy shown by that particular mixture. The minimum inhibitory concentration (MIC) of a microbicide is the lowest concentration tested under a specific set of conditions that prevents the growth of added microorganisms.
(§3) Synergy tests were conducted using standard microtiter plate assays with media designed for optimal growth of the test microorganism. Minimal salt medium supplemented with 0.2% glucose and 0.1% yeast extract (M9GY medium) was used for testing bacteria; Potato Dextrose Broth (PDB medium) was used for testing yeast and mold. In this method, a wide range of combinations of microbicides was tested by conducting high resolution MIC assays in the presence of various concentrations of MBIT. High resolution MICs were determined by adding varying amounts of microbicide to one column of a microtitre plate and doing subsequent […] dilutions using an automated liquid handling system to obtain a series of endpoints ranging from 2 ppm to 10,000 ppm active ingredient.
(§4) The synergy of the combinations of the present invention was determined against several microorganisms, as described in the Tables below. The bacteria were used at a concentration of about 5×10^6 bacteria per mL and the yeast and mold at 5×10^5 fungi per mL. These microorganisms are representative of natural contaminants in many consumer and industrial applications. […] (yeast and mold) or 30° C. (bacteria).
(§5) In each test, Second Component (B) was MBIT and the First Component (A) was the other commercial microbicide.

C. albicans ATCC # 10231 = experiment: Microtiter plate MIC / synergy test (Kull synergy index), yeast, PDB medium; conditions: for Ca: MIC of BIOBAN1246 alone: component alone; for Ca: ppm AI of first component (A) alone (MIC, QA): C. albicans
From the text: as §1, §2, §3, §4, §5

[1] = test system: Ps. aeruginosa ATCC # 9027; experiment: Microtiter plate MIC / synergy test (Kull synergy index), bacteria, M9GY medium; conditions: for Ca: MIC of BIOBAN1246 alone: component alone; for Ca: ppm AI of first component (A) alone (MIC, QA): Ps. aeruginosa
Description: as §2, §3
The bacteria were used at a concentration of about 5×10^6 bacteria per mL and the yeast and mold at 5×10^5 fungi per mL. These microorganisms are representative of natural contaminants in many consumer and industrial applications. […] (yeast and mold) or 30° C. (bacteria).
as §5

S. aureus ATCC # 6538 = experiment: as above; conditions: for Ca: MIC of BIOBAN1246 alone: component alone; for Ca: ppm AI of first component (A) alone (MIC, QA): S. aureus
From the text: as §1, §2, §3, §4, §5

| Ca: ppm AI of first component (A) alone (MIC, QA) (A. niger ATCC # 16404; contact time 3 days) [ppm AI] | Ca: ppm AI of first component (A) alone (MIC, QA) (A. niger ATCC # 16404; contact time 7 days) [ppm AI] | Ca: ppm AI of first component (A) alone (MIC, QA) (C. albicans ATCC # 10231; contact time 48 hrs) [ppm AI] | Ca: ppm AI of first component (A) alone (MIC, QA) (C. albicans ATCC # 10231; contact time 72 hrs) [ppm AI] | Ca: ppm AI of first component (A) alone (MIC, QA) ([1]; contact time 24 hrs) [ppm AI] | Ca: ppm AI of first component (A) alone (MIC, QA) ([1]; contact time 48 hrs) [ppm AI] | Ca: ppm AI of first component (A) alone (MIC, QA) (S. aureus ATCC # 6538; contact time 24 hrs) [ppm AI] | Ca: ppm AI of first component (A) alone (MIC, QA) (S. aureus ATCC # 6538; contact time 48 hrs) [ppm AI] | Structure (SMILES) | Ca: MIC of BIOBAN1246 alone (A. niger ATCC # 16404; A. niger ATCC # 16404, contact time 3 days) [ppm AI] | Ca: MIC of BIOBAN1246 alone (A. niger ATCC # 16404; A. niger ATCC # 16404, contact time 7 days) [ppm AI] | Ca: MIC of BIOBAN1246 alone (C. albicans ATCC # 10231; C. albicans ATCC # 10231, contact time 48 hrs) [ppm AI] | Ca: MIC of BIOBAN1246 alone (C. albicans ATCC # 10231; C. albicans ATCC # 10231, contact time 72 hrs) [ppm AI] | Ca: MIC of BIOBAN1246 alone ([1]; Ps. aeruginosa ATCC # 9027, contact time 24 hrs) [ppm AI] | Ca: MIC of BIOBAN1246 alone ([1]; Ps. aeruginosa ATCC # 9027, contact time 48 hrs) [ppm AI] | Ca: MIC of BIOBAN1246 alone (S. aureus ATCC # 6538; S. aureus ATCC # 6538, contact time 24 hrs) [ppm AI] | Ca: MIC of BIOBAN1246 alone (S. aureus ATCC # 6538; S. aureus ATCC # 6538, contact time 48 hrs) [ppm AI] |
| --- | --- | --- | --- | --- | --- | --- | --- | --- | --- | --- | --- | --- | --- | --- | --- | --- |
|  |  |  |  |  |  |  |  | CCC12COCN1COC2 [BIOBAN1246] | 650 | 875 | 3000 | 4250 | 100 | 150 | 55 | 55 |
| 525 | 875 | 1100 | 1100 | 100 | 100 | 55 | 55 | CC1(C)COCN1 [BIOBAN 1135, 4,4-dimethyloxazolidine] |  |  |  |  |  |  |  |  |
| 425 | 650 | 875 | 875 | 55 | 55 | 55 | 55 | OCCN1CN(CCO)CN(CCO)C1 [BIOBAN GK, hexahydro-1,3,5-tris(2-hydroxyethyl)-s-triazine] |  |  |  |  |  |  |  |  |
